The text below walks through data of paper PMC8508903, “Novel Dipyridinium Lipophile-Based Ionic Liquids Tethering Hydrazone Linkage: Design, Synthesis and Antitumorigenic Study” (International Journal of Molecular Sciences, 2021).

One data set deals with A549 lung cancer cells. The data set can be described thus: MTT cell viability assay, A549. It counts as cell-based, human. The conditions noted are these: mean of three independent experiments (N = 9). As to the method:
(§1) To evaluate the effect of the examined series on the viability of different lung cancer cells, MTT assay was conducted after exposing A549, H1299, and H661 cell lines to increasing concentrations of each compound for 48 h. […] Table 2 and Supplementary Figure S92 (see Supplementary Materials) show the 50% inhibitory concentration (IC50) values for the compounds under investigation in A549, H1299, and H661 lung cancer cells.
(§2) The human lung cancer cell lines A549, H1299 and H661 and the normal cells dermal fibroblasts were obtained from the American Type Culture Collection ATCC. Cells were cultured as a monolayer at seeding density of 8 × 10^3 cells per well in high glucose Dulbecco’s modified eagle medium (DMEM) (Invitrogen, USA), as previously described. The in vitro assessment of the antitumorigenic activities related to the studied compounds was undertaken using the 3-(4,5-dimethylthiazol-2yl)-2,5-diphenyl tetrazolium bromide (MTT) colorimetric assay, as previously reported. The compounds under investigation were tested in three triplicates of each concentration in three independent assays for a total of nine replicates. Both positive (cisplatin) and negative (untreated culture) controls were applied under the same experimental conditions. Cells were cultured for 48 h at 37 °C in a 5% CO2 incubator. Afterwards, MTT assay was carried out where viable cell count was determined based on the amount of formazan crystals, as verified by the absorbance at 490 nm.
(§3) Data was analyzed by Graphpad Prism software (Graphpad Software Inc. Jolla, CA, USA) for the determination of IC50 value. All data were expressed as the average of triplicate experiments.
A general note: Tetrazolium dyes change colour on reduction, which living cells bring about.

The test system of another data set is H1299 lung cancer cells. The data set can be described thus: MTT cell viability assay, H1299. It counts as cell-based, human. Particulars: mean of three independent experiments (N = 9). Here is the method: as §1, §2, §3
Another data set deals with H661 lung cancer cells. Nature of the data set: MTT cell viability assay, H661. Format: cell-based, human. The conditions noted are these: mean of three independent experiments (N = 9). As to the method:
as §1, §2, §3

In the next data set the test system is human dermal fibroblasts. The data set can be described thus: MTT cell viability assay, normal dermal fibroblasts. It counts as cell-based. The conditions noted are these: 48 h, noncancerous human dermal fibroblasts. As to the method: as §1, §2, §3
Data set [1] relates to A549 cells. Nature of the data set: Wound healing (migration) assay. Format: cell-based. Particulars: Homo sapiens, A549, 24 h, A549, 10 µM, read-out: % inhibition of wound closure. Here is the method:
The wound healing assay was performed in A549 cells to evaluate the effect of the synthesized series on lung cancer cell migration, as shown in Table 3. The wound of the control sample was completely closed after 24 h. […] Cell migration was inhibited after 24 h of treatment with compounds 22 or 23 compared to untreated control cells.
A549 cells were seeded in inserts (Ibidi GmbH, Gräfelfing, Germany) at concentration of 30,000 per insert in 70 μL medium and incubated for 24 h. Afterward, inserts were removed and cells incubated with 10 μg/mL of mitomycin C for 2 h to stop cell proliferation. The medium was removed, and cells were washed three times then cells were treated with 10 µM concentration of the examined compound. Images were captured at 24 h using BOECO microscope coupled with 5.0 Mega Cmos camera at 4× magnification. Digital images were taken using ISCapture software and wound width was measured using MIPAR software (MIPAR, Worthington, OH, USA).

Data set [2] deals with A549 cells. Nature of the data set: Colony formation in soft agar assay. It counts as cell-based, human. On the set-up: Average Colony Size: unit not given here. The conditions noted are these: day 12. As to the method: To investigate the effect of treatment with either potent compound 22 or 23 at two different concentrations (5 and 10 µM) on the colony-forming capability of lung cancer cells, A549 cells were treated with either concentration for 24 h. Afterwards, cells were grown on soft agar.
To carry out the soft agar assay, a bottom agar film of 1% (w/v) was prepared by mixing autoclaved 1% (w/v) agar solution with 2× DMEM medium in a 1:1 ratio and allowed to solidify at room temperature. A mixture of 1 × 10^4 of A549 cells treated with either compound NV7 (5 µM and 10 µM) or NV8 (5 µM and 10 µM) and 0.6% (w/v) agar solution was prepared in 1:1 ratio and poured on top of the bottom layer and left to solidify. Plate was incubated for 2 weeks. Photos were captured after 12 days using EVOS XL Core imaging system (Invitrogen, Waltham, MA, USA).

SMILES strings stand for the structures. Bounds are passed on as bounds.

What is called IC50 is the concentration that inhibits the measured activity by half. For orientation: inhibition means the share of the control response that was lost under treatment. `CCCCCCCCCC[n+]1ccc(C(=O)NN=Cc2ccc[n+](CCCCCCCCCC)c2)cc1.F[B-](F)(F)F.F[B-](F)(F)F` [Compound 23, 1-Decyl-3-((2-(1-decylpyridin-1-ium-4-carbonyl)hydrazono)methyl)pyridin-1-ium Tetrafluoroborate]: the IC50 in the data set on A549 lung cancer cells (Homo sapiens, A549, 48 h) was 13.5 µM; in the data set with H1299 lung cancer cells (Homo sapiens, NCI-H1299, 48 h), 10.8 µM; in the data set on H661 lung cancer cells (48 h) it was 11.3 µM; with human dermal fibroblasts (Homo sapiens, Fibroblast), greater than 300 µM. For the same molecule, the inhibition at 10 µM with A549 cells [1] worked out at 67.1%. The figures for the “Average Colony Count” value in the data set with A549 cells [2] (5 µM) and in the data set on A549 cells [2] (10 µM) were 135 and 45, respectively. Moreover, the “Average Colony Size” value in the data set with A549 cells [2] (5 µM) was found to be 43771; with A549 cells [2] (10 µM), 16837.
`CCCCCCCCCC[n+]1ccc(C(=O)N/N=C/c2ccc[n+](CCCCCCCCCC)c2)cc1` [Compound 22, 1-Decyl-3-((2-(1-decylpyridin-1-ium-4-carbonyl)hydrazono)methyl)pyridin-1-ium Hexafluorophosphate]: the IC50 in the data set with A549 lung cancer cells (Homo sapiens, A549, 48 h) is 23.5 µM; in the data set on H1299 lung cancer cells (Homo sapiens, NCI-H1299, 48 h) it was 29.1 µM; in the data set on H661 lung cancer cells (Homo sapiens, NCI-H661, 48 h), 25.6 µM; in the data set on human dermal fibroblasts (Homo sapiens, Fibroblast) it was greater than 300 µM. In the data set with A549 cells [1], the inhibition at 10 µM is 67.6%. For the same molecule, the “Average Colony Count” value in the data set with A549 cells [2] (5 µM) is on record as 210; in the data set with A549 cells [2] (10 µM), 98. The results for the “Average Colony Size” value with A549 cells [2] (5 µM) and in the data set on A549 cells [2] (10 µM) were 16356 and 11159, respectively.
The melting point is the temperature, or range, at which the solid turns liquid. Take `CCCCCCCCCC[n+]1ccc(C(=O)NN=Cc2ccc[n+](CCCCCCCCCC)c2)cc1.[I-].[I-]` [Compound 11, 1-Decyl-3-((2-(1-decylpyridin-1-ium-4-carbonyl)hydrazono)methyl)pyridin-1-ium Iodide]: the melting point is 70 to 72 °C. Moreover, in the data set with A549 lung cancer cells (48 h), half-maximal inhibition (IC50) was put at 15.1 µM. Further, the IC50 in the data set on H1299 lung cancer cells (48 h) worked out at 19 µM. The half-maximal inhibitory concentration (IC50) in the data set with H661 lung cancer cells (48 h) was 23.5 µM. Further, the IC50 with human dermal fibroblasts is greater than 300 µM.
Take `CCCCCCCCCCCCCCCCCC[n+]1ccc(C(=O)NN=Cc2ccc[n+](CCCCCCCCCCCCCCCCCC)c2)cc1.[I-].[I-]` [Compound 15, 1-Octadecyl-3-((2-(1-octadecylpyridin-1-ium-4-carbonyl)hydrazono)methyl)pyridin-1-ium Iodide]: the melting point is 192 to 193 °C. This molecule had a concentration for half-maximal inhibition (IC50) in the data set with A549 lung cancer cells (48 h) of 26.2 µM. Besides, inhibition in the data set on H1299 lung cancer cells (48 h) was half-maximal at 22.1 µM (IC50). Moreover, the IC50 in the data set on H661 lung cancer cells (48 h) came out at 26.1 µM. This molecule gave an IC50 in the data set with human dermal fibroblasts greater than 300 µM.
